The text below walks through data of paper PMC2064136 (The Journal of Cell Biology, 2007).

Data set [1] deals with mouse liver mitochondria (MLM). The data set is classed as biochemical.
The test system of data set [2] is Xenopus egg mitochondria (XEM). The data set is classed as biochemical, Xenopus laevis. Conditions: for concentration that protected XEM against at least 20 nM tBid: titrations in XEM supplemented with tBid (Fig. 5 A).
Data set [3] has as its system Bak. Conditions: ref Willis et al., 2005; cited from earlier work.
[4] abbreviates: full-length Bcl-xL, tBid 2 h (Fig. 3).

For the substance “Bcl-xL: recombinant full-length human Bcl-xL”, the “concentration protecting MLM from tBid” value in data set [1] (setting [4]) is listed as about 20 nM. Moreover, the “concentration protecting XEM from tBid” value in data set [2] (setting [4]) is on record as about 20 nM. For the same substance, the “concentration that protected XEM against at least 20 nM tBid” value in data set [2] stood at 30 nM. In addition, the “binding to Bak” value in data set [3] was “bind Bak”.
As for “Bcl-xLΔC24: C-terminally truncated form of human Bcl-xL”, in data set [1] (MLM, tBid (Fig. 3 B)), the “loss of activity relative to full-length Bcl-xL in protecting MLM from tBid” value was 10–30 times.
Take “Mcl-1: recombinant mouse Mcl-1ΔN151ΔC11 with five additional N-terminal residues (GPLGS)”: the “block of the permeabilizing effect of Bad, Bmf and Hrk BH3 peptides on MLM” value in data set [1] (MLM incubated as for XEM with mBad, Bmf, Hrk BH3 peptides (Fig. 4 B)) was “also blocked”. Moreover, the “relative protection of XEM from different BH3 peptides” value in data set [2] (Fig. S4) is given as “protected XEM better from the Bad than from the Bim or Puma peptides”. Besides, in data set [2], the “concentration that protected XEM against at least 20 nM tBid” value turned out to be 300 nM. Also, in data set [3], the “binding to Bak” value is listed as “bind Bak”.
